Structures can show the parent of a compound that is named as a salt.

In this assay the target is HCV NS5b RNA dependent RNA polymerase (Hepatitis C virus genotype 1a, UniProt P27958). The assay is described as follows: HCV NS5b RNA dependent RNA polymerase inhibition assay (3H-GTP incorporation, scintillation proximity). Type of assay: biochemical. As to conditions: inhibition of HCV NS5b polymerase activity; Table 2; read-out: concentration in micromolar required for 50% inhibition. The method, then: Compounds of the present invention are evaluated for inhibition of HCV NS5b RNA dependent RNA polymerase activity in assays comprised of a suitable buffer (e.g. 20 mM Tris-HCl pH 7.6), primed or unprimed RNA templates, GTP, ATP, CTP, and UTP, MnCl2 or MgCl2, and reducing agent such as 10 mM dithiothreitol or 2-mercaptoethanol. The assay buffer may contain salts such as ammonium acetate, KCl, or NaCl, and nonionic or zwitterionic detergents such as Tween or CHAPS. The incorporation of nucleotides into the complementary RNA strand may be monitored by the incorporation of radiolabeled NTP (e.g. ^3H labeled GTP). Suitable RNA templates for de novo initiation in the presence of 20-50 μM GTP or ATP are the homopolymers poly rC and poly rU, respectively. Heteropolymer RNA templates with 1-3 cytidine (C) bases or 1-3 uridine (U) bases at the 3′ terminus of the template may also be used for de novo initiation. Primed RNA templates such as poly rC primed with oligo rG or oligo dG, and poly rA primed with oligo rU may also be used to detect polymerase activity. The primers may be any length greater than 10 bases. A biotin residue may be added to the 5′ end of the template or the 5′ end of the primer to capture the template and the newly synthesized, complementary strand on avidin coated spheres. […]
Chain of HCV NS5b RNA dependent RNA polymerase (P27958 2421-3011): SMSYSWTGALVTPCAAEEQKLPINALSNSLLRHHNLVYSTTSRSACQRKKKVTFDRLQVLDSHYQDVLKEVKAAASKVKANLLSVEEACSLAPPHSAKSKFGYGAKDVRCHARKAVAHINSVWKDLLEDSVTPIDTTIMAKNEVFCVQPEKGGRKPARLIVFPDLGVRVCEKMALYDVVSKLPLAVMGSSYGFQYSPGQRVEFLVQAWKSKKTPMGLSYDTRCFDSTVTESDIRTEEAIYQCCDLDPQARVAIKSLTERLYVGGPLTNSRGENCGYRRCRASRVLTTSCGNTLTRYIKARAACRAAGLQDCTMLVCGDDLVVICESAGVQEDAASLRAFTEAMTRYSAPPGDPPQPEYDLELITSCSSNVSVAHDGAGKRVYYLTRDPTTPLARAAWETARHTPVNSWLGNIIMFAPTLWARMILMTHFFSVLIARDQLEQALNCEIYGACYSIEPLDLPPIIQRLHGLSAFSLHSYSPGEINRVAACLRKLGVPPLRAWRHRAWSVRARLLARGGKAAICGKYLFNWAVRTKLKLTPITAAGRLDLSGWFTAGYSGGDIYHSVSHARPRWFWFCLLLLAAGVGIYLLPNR

As for `N#Cc1ccc(Nc2ccc(C(F)(F)F)cc2NC(=O)c2ccccc2C(=O)O)cc1` [xvii., 2-({[2-[(4-cyanophenyl)amino]-5-(trifluoromethyl)phenyl]amino}carbonyl)benzoic acid], the IC50 was 1.74 µM.
In the case of `NCc1ccc(Nc2ccc(C(F)(F)F)cc2NC(=O)c2cc(Cl)c(Cl)cc2C(=O)O)cc1` [i., 2-[[[2-[[4-(Aminomethyl)phenyl]amino]-5-(trifluoromethyl)phenyl]amino]carbonyl]-4,5-dichlorobenzoic acid monohydrochloride], the IC50 turned out to be 1.42 µM.

Source of the values: patent publication US6930106B2, “Inhibitors of HCV NS5B polymerase” (Pharmacia & UpJohn Company, priority 2002, dated 2005).
